# Measured values: patent US11059809B2, “Substituted cyanopyrrolidines with activity as DUB inhibitors” (MISSION THERAPEUTICS LIMITED, priority 2017, dated 2021)
# Target: USP30 (Homo sapiens (Human), UniProt Q70CQ3)
# Experiment: USP30 Biochemical IC50 Assay
# Conditions: fluorescence polarisation, TAMRA labelled peptide linked to ubiquitin as substrate
# Experimental: Dilution plates were prepared at 21 times the final concentration (2100 μM for a final concentration of 100 μM) in 50% DMSO in a 96-well polypropylene V-bottom plate (Greiner #651201). A typical 8-point dilution series would be 100, 30, 10, 3, 1, 0.3, 0.1, 0.03 μM final. Reactions were performed in duplicate in black 384 well plates (small volume, Greiner 784076) in a final reaction volume of 21 μl. Either 1 μl of 50% DMSO or diluted compound was added to the plate. USP30 was diluted in reaction buffer (40 mM Tris, pH 7.5, 0.005% Tween 20, 0.5 mg/ml BSA, 5 mM beta-mercaptoethanol) to the equivalent of 0.05 μl/well and 10 μl of diluted USP30 was added to the compound. Enzyme and compound were incubated for 30 min at room temp. Reactions were initiated by the addition of 50 nM of TAMRA labelled peptide linked to ubiquitin via an iso-peptide bond as fluorescence polarisation substrate. Reactions were read immediately after addition of substrate and following a 2-hour incubation at room temperature. Readings were performed on a Pherastar Plus (BMG Labtech). λ Excitation 540 nm; λ Emission 590 nm.
# USP30, sequence (Q70CQ3 whole entry): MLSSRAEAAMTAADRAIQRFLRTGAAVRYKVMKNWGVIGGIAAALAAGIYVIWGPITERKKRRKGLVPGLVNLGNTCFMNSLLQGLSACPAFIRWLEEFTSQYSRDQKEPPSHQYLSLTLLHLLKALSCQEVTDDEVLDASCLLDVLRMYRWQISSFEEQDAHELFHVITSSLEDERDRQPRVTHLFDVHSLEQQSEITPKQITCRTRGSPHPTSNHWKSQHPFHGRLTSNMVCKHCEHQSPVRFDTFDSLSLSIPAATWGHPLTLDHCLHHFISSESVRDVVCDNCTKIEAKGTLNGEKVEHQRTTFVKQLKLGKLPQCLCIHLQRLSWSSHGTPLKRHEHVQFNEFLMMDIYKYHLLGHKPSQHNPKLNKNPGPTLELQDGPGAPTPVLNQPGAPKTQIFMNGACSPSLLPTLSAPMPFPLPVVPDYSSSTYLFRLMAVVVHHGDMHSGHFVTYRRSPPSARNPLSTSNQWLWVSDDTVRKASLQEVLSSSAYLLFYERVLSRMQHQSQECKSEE
row,IC50,Structure (SMILES)
1,10 to 100 nM,"C[C@@H]1[C@H](CNC(=O)c2ncn(-c3cccc(C#N)c3)n2)CCN1C#N (mixture of isomers) [Example 4, N-(((2R,3R)-1-cyano-2-methylpyrrolidin-3-yl)methyl)-1-(3-cyanophenyl)-1H-1,2,4-triazole-3-carboxamide and N-(((2R,3S)-1-cyano-2-methylpyrrolidin-3-yl)methyl)-1-(3-cyanophenyl)-1H-1,2,4-triazole-3-carboxamide]"
2,10 to 100 nM,"CN(C[C@H]1CCN(C#N)C1)C(=O)c1ncn(-c2cccc(C#N)c2)n1 [Example 2, (S)-1-(3-cyanophenyl)-N-((1-cyanopyrrolidin-3-yl)methyl)-N-methyl-1H-1,2,4-triazole-3-carboxamide]"
3,100 to 1000 nM,"N#Cc1cccc(-n2cc(C(=O)NC[C@H]3CCN(C#N)C3)nn2)c1 [Example 5, (R)-1-(3-cyanophenyl)-N((1-cyanopyrrolidin-3-yl)methyl)-1H-1,2,3-triazole-4-carboxamide]"
4,< 10 nM,"N#CN1CC[C@H](CNC(=O)c2cnn(-c3cccc(Cl)c3)n2)C1 [Example 7, (R)-2-(3-chlorophenyl)-N-((1-cyanopyrrolidin-3-yl)methyl)-2H-1,2,3-triazole-4-carboxamide]"
